From article PMC8765437, “GSK3640254 Is a Novel HIV-1 Maturation Inhibitor with an Optimized Virology Profile” (Antimicrobial Agents and Chemotherapy, 2022)
Like-named read-outs stand apart in the source and are kept apart here.

Columns and labels:
Assay type in all cases: cell-based
HIV-1 clinical isolates = assay: Inhibition of clinical isolates in PBMCs; settings: Human immunodeficiency virus 1, PBMC
Method: Human peripheral blood mononuclear cells (PBMCs) were infected with isolates, and virus yields were measured by determining extracellular p24 protein levels (Table 4). […] These isolates were also examined in the NLRepRlucP373S virus by replacement of the gag/pr genes with those from these clinical isolates.
Peripheral blood mononuclear cells (BioReclamation, Westbury, NY) were cultured at 37°C and 5% CO2 in RPMI 1640 medium with 20% fetal bovine serum (Gibco Laboratories), 100 units/mL of penicillin G, 100 units/mL of streptomycin (Gibco Laboratories), and 1 ng/mL of recombinant human interleukin-2 (Invitrogen, Carlsbad, CA). Peripheral blood mononuclear cells were stimulated with 2 μg/mL of phytohemagglutinin (Sigma-Aldrich, St. Louis, MO) for 2 days before infection with HIV-1 clinical isolates.
(§1) Multiple-cycle assays using recombinant viruses or clinical isolates were used to assess MI antiviral activity as described previously ([10]). pNLRepRlucP373S (the P373S change is in the Gag gene and converts an outlier polymorphism in the NL4-3 gene to the prevalent amino acid in the population) plasmids containing SDMs in Gag or gag/pr regions from clinical isolates were transfected into HEK 293T cells, and the supernatant containing recombinant virus was harvested after 4 to 5 days. Virus was used to infect MT-2 cells in the presence of a 3-fold serially diluted compound at a final dimethyl sulfoxide (DMSO) concentration of 1%. The inocula of the reporter viruses were determined based on the luciferase activity detected on day 4 postinfection. The MOI (ratio of infectious virions to target cells) of reporter-free laboratory strains and clinical isolates was 0.005, as derived from a tissue culture infectious dose study. Clinical isolates or reporter-free viruses were examined in the reporter CEM-NKR-CCR5-Luc cells or PBMCs at MOIs ranging from 0.005 to 0.01. Each infection started with a drug-free preincubation of the cell-virus mixtures, performed at 37°C and 5% CO2 for either 1 h at 2 times the final cell density (reporter viruses) or 1 h (reporter-free laboratory strains) or 3 h (clinical isolates) using cell pellets in 0.5 mL of medium. After preincubation, cell-virus mixtures were added to compound-containing 96-well plates for a final cell density of either 10,000 (MT-2 cells for reporter viruses), 20,000 (MT-2 and PM1 cells for reporter-free laboratory strains), 200,000 (PBMCs for clinical isolates), or 500,000 (CEM-NKR-CCR5-Luc for reporter-free laboratory strains) cells per well. The CEM-NKR-CCR5-Luc cell assay was performed in the presence of Polybrene (10 μg/mL). Virus growth was determined on days 4 to 5 postinfection for reporter variants or days 5 to 11 for the other viruses. The reporter viruses were detected by a luciferase assay according to manufacturer protocols (Brite-Glo luciferase kit [Promega] for CEM-NKR-CCR5-Luc cells and Dual-Luciferase Reporter 1000 assay system [Promega] for the other cells), and luminescence was detected on a Wallac Trilux. The growth of clinical isolates in PBMCs was quantitated by reverse transcriptase activity in a 96-well scintillation proximity assay (SPA). Twenty microliters of culture supernatants was mixed with 40 μL of reaction cocktail (62.5 mM Tris-HCl [pH 7.8], 100 mM KCl, 0.0625% NP-40, 2.5 mM dithiothreitol [DTT], 6.25 mM MgCl2, 1 mM EGTA, 6.25 μg/mL of poly rA, 2.5 μg/mL of streptavidin SPA beads prebound with biotinylated-dT12-18, and 1 μCi of [^3H]TTP). Mixtures were incubated at 37°C for ∼3 h and quenched with 100 μl of 0.25 M EDTA per well. Luminescence was detected on a Wallac Trilux programmed for tritium counting with SPA beads in opaque plates. The growth of the reporter-free laboratory M-tropic strains and clinical isolates was monitored by a p24 enzyme-linked immunosorbent assay (ELISA; PerkinElmer Life Sciences, Waltham, MA) performed on culture supernatants.

HIV-2 strains = assay: HIV-2 strains, luciferase activity in CEM-NKR-CCR5-Luc cells
Method: (§2) Virus yields were measured in dose-response experiments by either luciferase activity in human T-cells (CEM-NKR-CCR5-Luc), extracellular reverse transcriptase activity in MT-2 cells (T-tropic viruses), or extracellular p24 antigen in PM1 cells (M-tropic viruses).
(§3) Multiple-cycle assays using recombinant viruses or clinical isolates were used to assess MI antiviral activity as described previously ([10]). pNLRepRlucP373S (the P373S change is in the Gag gene and converts an outlier polymorphism in the NL4-3 gene to the prevalent amino acid in the population) plasmids containing SDMs in Gag or gag/pr regions from clinical isolates were transfected into HEK 293T cells, and the supernatant containing recombinant virus was harvested after 4 to 5 days. Virus was used to infect MT-2 cells in the presence of a 3-fold serially diluted compound at a final dimethyl sulfoxide (DMSO) concentration of 1%. The inocula of the reporter viruses were determined based on the luciferase activity detected on day 4 postinfection. […] Virus growth was determined on days 4 to 5 postinfection for reporter variants or days 5 to 11 for the other viruses. The reporter viruses were detected by a luciferase assay according to manufacturer protocols (Brite-Glo luciferase kit [Promega] for CEM-NKR-CCR5-Luc cells and Dual-Luciferase Reporter 1000 assay system [Promega] for the other cells), and luminescence was detected on a Wallac Trilux. The growth of clinical isolates in PBMCs was quantitated by reverse transcriptase activity in a 96-well scintillation proximity assay (SPA). […] Luminescence was detected on a Wallac Trilux programmed for tritium counting with SPA beads in opaque plates. The growth of the reporter-free laboratory M-tropic strains and clinical isolates was monitored by a p24 enzyme-linked immunosorbent assay (ELISA; PerkinElmer Life Sciences, Waltham, MA) performed on culture supernatants.
(§4) Maximal percent inhibition values were calculated as MPI = 100 – (mean signals at the 2 highest concentrations of compound/mean signal of 2 no-drug control wells) × 100.

HIV-1 M tropic strains = assay: M-tropic laboratory strains, extracellular p24 antigen in PM1 cells
Method: as §2
as §3, with “postinfection. The MOI (ratio of infectious virions to target cells) of reporter-free laboratory strains and clinical isolates was 0.005, as derived from a tissue culture infectious dose study. Clinical isolates or reporter-free viruses were examined in the reporter CEM-NKR-CCR5-Luc cells or PBMCs at MOIs ranging from 0.005 to 0.01. Each infection started with a drug-free preincubation of the cell-virus mixtures, performed at 37°C and 5% CO2 for either 1 h at 2 times the final cell density (reporter viruses) or 1 h (reporter-free laboratory strains) or 3 h (clinical isolates) using cell pellets in 0.5 mL of medium.” for “postinfection.”
as §4

HIV-1 laboratory strains = assay: Laboratory strains, reverse transcriptase activity in MT-2 cells
Method: as §2, §1, §4

[1] = read-out: Mean EC50, subtype A 92UG037
[2] = read-out: Mean EC50, subtype A 93RW029
[3] = read-out: Mean EC50, subtype A 93RW034
[4] = read-out: Mean EC50, subtype AE 93TH023
[5] = read-out: Mean EC50, subtype AE 93TH053
[6] = read-out: Mean EC50, subtype AE CMU010
[7] = read-out: Mean EC50, subtype B 92BR003
[8] = read-out: Mean EC50, subtype B 92BR018
[9] = read-out: Mean EC50, subtype B 93BR009
[10] = read-out: Mean EC50, subtype B 93BR013
[11] = read-out: Mean EC50, subtype B 93BR017
[12] = read-out: Mean EC50, subtype C 93MW960
[13] = read-out: Mean EC50, subtype C 97ZA012
[14] = read-out: Mean EC50, subtype C 98BR004
[15] = read-out: Mean EC50, subtype C 10215-6
[16] = read-out: Mean EC50, subtype C 20706-3
[17] = read-out: Mean EC50, subtype C MJ4
[18] = Human immunodeficiency virus 2, HIV-2 ROD, first value in cell
[19] = Human immunodeficiency virus 1, PM1, Bal
[20] = Human immunodeficiency virus 1, PM1, JRFL
[21] = Human immunodeficiency virus 1, NL43, MT2, NL4-3, second value in cell, read-out: EC50 (converted)

Compound | EC50 (HIV-1 clinical isolates; [1]) [nM] | EC50 (HIV-1 clinical isolates; [2]) [nM] | EC50 (HIV-1 clinical isolates; [3]) [nM] | EC50 (HIV-1 clinical isolates; [4]) [nM] | EC50 (HIV-1 clinical isolates; [5]) [nM] | EC50 (HIV-1 clinical isolates; [6]) [nM] | EC50 (HIV-1 clinical isolates; [7]) [nM] | EC50 (HIV-1 clinical isolates; [8]) [nM] | EC50 (HIV-1 clinical isolates; [9]) [nM] | EC50 (HIV-1 clinical isolates; [10]) [nM] | EC50 (HIV-1 clinical isolates; [11]) [nM] | EC50 (HIV-1 clinical isolates; [12]) [nM] | EC50 (HIV-1 clinical isolates; [13]) [nM] | EC50 (HIV-1 clinical isolates; [14]) [nM] | EC50 (HIV-1 clinical isolates; [15]) [nM] | EC50 (HIV-1 clinical isolates; [16]) [nM] | EC50 (HIV-1 clinical isolates; [17]) [nM] | EC50 (HIV-2 strains; [18]) [nM] | EC50 (HIV-1 M tropic strains; [19]) [nM] | EC50 (HIV-1 M tropic strains; [20]) [nM] | further results
C=C(C)[C@@H]1CC[C@]2(NCCN3CCS(=O)(=O)CC3)CC[C@]3(C)[C@H](CC[C@@H]4[C@@]5(C)CC=C(c6ccc(C(=O)O)cc6)C(C)(C)[C@@H]5CC[C@]43C)[C@@H]12 [GSK’795, reference compound] | 2 | 6 | 2 | 533 | 18 | 35 | 4 | 145 | 2 | 9 | 10 | 1580 | 4 | 1 | 13 | 4 | 7 | > 3000 | 3.7 | 13 | EC50 (HIV-1 clinical isolates; read-out: mean EC50 toward clinical isolates, panel of HIV-1 clinical isolates, subtypes A, B, C, CRF01_AE): 138 nM; EC50 (HIV-1 laboratory strains; Human immunodeficiency virus 1, HXB2, MT2, HXB2, footnote b: RT activity in MT-2 cells, read-out: GSK’795 EC50 ± SD): 9.3 ± 3.9 nM; EC50 (HIV-1 laboratory strains; Human immunodeficiency virus 1, IIIB, MT2, IIIB, footnote b: RT activity in MT-2 cells, read-out: GSK’795 EC50 ± SD): 2.5 ± 0.8 nM; EC50 (HIV-1 laboratory strains; Human immunodeficiency virus 1, MT2, LAI, footnote b: RT activity in MT-2 cells, read-out: GSK’795 EC50 ± SD): 2.4 ± 0.8 nM; EC50 (HIV-1 laboratory strains; Human immunodeficiency virus 1, MT2, MN, footnote b: RT activity in MT-2 cells, read-out: GSK’795 EC50 ± SD): 1 nM; EC50 (HIV-1 laboratory strains; Human immunodeficiency virus 1, MT2, RF, head footnote b: RT activity in MT-2 cells unless otherwise noted, read-out: GSK’795 EC50 ± SD): 6.9 ± 2.8 nM; EC50 (HIV-1 laboratory strains; Human immunodeficiency virus 1, NL43, MT2, NL4-3, first value in cell, footnote b: RT activity in MT-2 cells, read-out: GSK’795 EC50 ± SD): 3.9 ± 2.2 nM; EC50 (HIV-1 laboratory strains; [21]): 19 nM
C=C(C)[C@@H]1CC[C@]2(NCCN3CCS(=O)(=O)CC3)CC[C@]3(C)[C@H](CC[C@@H]4[C@@]5(C)CC=C(C6=CC[C@@](CF)(C(=O)O)CC6)C(C)(C)[C@@H]5CC[C@]43C)[C@@H]12 [GSK’254] | 5 | 3 | 1 | 1 | 5 | 3 | 2 | 77 | 1 | 3 | 1 | 9 | 3 | 1 | 1 | 4 | 3 | > 3000 | 1.1 | 1.2 | EC50 (HIV-1 clinical isolates; read-out: Mean EC50, subtype B 93BR008): 50 nM; EC50 (HIV-1 clinical isolates; read-out: Mean EC50, subtype B 93US143): 2 nM; EC50 (HIV-1 clinical isolates; read-out: mean EC50, subtype A/AE isolates): 3 nM; EC50 (HIV-1 clinical isolates; read-out: mean EC50, subtype B isolates): 19 nM; EC50 (HIV-1 clinical isolates; read-out: mean EC50, subtype C isolates): 3.5 nM; EC50 (HIV-2 strains; Human immunodeficiency virus 2, HIV-2 287): 1240 nM; EC50 (HIV-1 laboratory strains; [21]): 7.3 nM
